Values quoted from earlier work as cited in patent publication US20050256097A1, “Pharmaceutical solution formulations containing 17-AAG” (Kosan Biosciences, Inc., priority 2004, published 2005).

water solubility (in words)	water solubility (neutral pH)	Compound
very poor water solubility	about 0.1 mg/mL	C=CCNC1=C2C[C@@H](C)C[C@H](OC)[C@H](O)[C@@H](C)/C=C(\C)[C@H](OC(N)=O)[C@@H](OC)/C=C\C=C(/C)C(=O)NC(=CC1=O)C2=O [Sample 17-AAG, 17-allylamino-17-demethoxygeldanamycin]
very poor water solubility	–	COC1=C2C[C@@H](C)C[C@H](OC)[C@H](O)[C@@H](C)/C=C(\C)[C@H](OC(N)=O)[C@@H](OC)/C=C\C=C(/C)C(=O)NC(=CC1=O)C2=O [geldanamycin, Geldanamycin]

Compound	water solubility (in words)	water solubility (neutral pH)
COC1/C=C\C=C(/C)C(=O)NC2=CC(=O)C(NCCN(C)C)=C(C[C@@H](C)C[C@H](OC)[C@H](O)[C@@H](C)/C=C(\C)[C@@H]1OC(N)=O)C2=O (stereo partly shown) [Sample 17-DMAG, 17-(2-dimethylaminoethyl)amino-17-demethoxygeldanamycin]	more soluble	–
